The subject of one data set is Human LAD2 cells. Kind of data set: Mast Cell Beta-Hexosaminidase Release Assay (LAD2 cells, 500 nM Cortistatin-14). As to conditions: read-out: MRGPRX2 Antagonist Activity. It counts as cell-based. Here is the method:
Human LAD2 cells (NIH) were maintained in an incubator at 37° C. with 5% CO2 and cultured in StemPro-34 serum-free media (Gibco 10639011) supplemented with 2 mM L-glutamine, 100 U/ml penicillin, […] streptomycin and 100 ng/ml SCF (Invitrogen PEP0860), at a concentration of 2-5×10^5 cells/mL, with hemidepletion every 1-2 weeks.
Cells were transferred to SCF-Free medium at 2.5×10^5 cells/mL and kept in an incubator overnight. On the day of the assay, cells were washed twice in Assay Buffer (final concentrations 10 mM HEPES, 137 mM NaCl, 5.6 mM D-glucose, 2.7 mM KCl, 1 mM MgCl, 1.8 mM CalCl2, 0.4 mM Na2HPO4·7H2O, 0.04% BSA, pH=7.4) and plated in a 96-well v-bottom plate at 20,000 cells per well in 80 μL Assay Buffer. Antagonist compounds solubilized at 10 mM in DMSO were diluted in Assay Buffer to 10× final desired concentrations as a 10-point curve (10 μM final top concentration with 1:3 serial dilutions) and 10 μL added per well. Plates were then incubated for 1 hour at 37° C. Agonists were diluted in Assay Buffer to 10× desired concentrations and 10 μL of the appropriate agonist added to each well. The final concentration of Cortistatin-14 (Tocris 3374) used in antagonist assays was 500 nM. Final concentrations of DMSO were kept consistent across the plate. Plates were then incubated in a warm air oven for 30 minutes at 37° C., followed by centrifugation at 4° C. for 5 minutes at 450×g. 50 μL supernatant from each well was then transferred to a 96-well flat bottom plate containing 100 μL substrate solution per well (3.5 mg/mL p-Nitrophenyl-N-acetyl-o-D-glucosaminide (Sigma 487052) in Citrate Buffer containing a final concentration of 40 mM Citric Acid, 20 mM Na2HPO4·7H2O, pH=4.5). To the cell pellets left in the remaining assay buffer, 150 μL 0.1% Triton-X-100 was then added to each well, resuspended by pipetting up and down, and 50 μL cell lysates transferred to a second 96-well flat bottom plate containing 100 μL substrate solution per well. Plates containing transferred supernatant and cell lysates were then incubated in a warm air oven for 90 minutes at 37° C. After incubation, 50 μL of 400 mM Glycine buffer (pH 10.7) was added into each well and the plate was read on a Molecular Devices SpectraMax iD5 plate reader (absorbance at 405 nm with reference filter at 620 nm). After background subtraction, the percentage degranulation (percent beta-hexosaminidase release) was calculated as 100×(supernatant values)/(supernatant+lysate values), followed by analysis using GraphPad Prism software to calculate an IC50 value for each compound.
The activity ranges are denoted as follows: “+++++” denotes antagonist activity <100 nM; “++++” denotes antagonist activity between 100 and 500 nM; “+++” denotes activity between 501 and 1000 nM; “++” denotes activity between 1001 and 2500 nM; and “+” denotes activity >2500 nM.

Data set [1] in a line: Mouse Pharmacokinetic Studies (50 mg/kg oral gavage, plasma LC-MS/MS). It counts as in vivo. The conditions noted are these: male C57BL/6 mice, non-fasted. The protocol:
Compounds were formulated in 5% DMSO, 5% Solutol, and 90% PBS without Ca and Mg (pH 7.4) at a concentration of […]. Male C57BL/6 mice (n=6/compound) were administered a 50 mg/kg dose of each compound by oral gavage under a non-fasted condition. Blood samples were collected via the Submandibular vein onto K2-EDTA at 0.5, 1, 2, 4, 8 and 24 hours after dosing, and plasma was prepared and stored at −80° C. until analysis. Plasma sample preparation for analysis was done by protein precipitation using acetonitrile (including Verapamil as an internal standard) followed by centrifugation. Compound concentrations were determined in extracted plasma using LC-MS/MS relative to a 12-point standard curve covering the 1 to 4000 nM range. Non-compartmental analysis using Phoenix WinNonlin was used to estimate pharmacokinetic parameters including area under the curve, clearance, and half-life. The administered dose was confirmed by analysis of residual dosing material by UPLC-UV relative to a single point calibration sample.

A further data set deals with T1, human MRGPRX2 (Homo sapiens, UniProt Q96LB1).
T1 construct: expressed in transfected cells; host or cells: CHO cells, stably transfected (G418 and Hygromycin B selection)
T1 sequence (Q96LB1 1-330): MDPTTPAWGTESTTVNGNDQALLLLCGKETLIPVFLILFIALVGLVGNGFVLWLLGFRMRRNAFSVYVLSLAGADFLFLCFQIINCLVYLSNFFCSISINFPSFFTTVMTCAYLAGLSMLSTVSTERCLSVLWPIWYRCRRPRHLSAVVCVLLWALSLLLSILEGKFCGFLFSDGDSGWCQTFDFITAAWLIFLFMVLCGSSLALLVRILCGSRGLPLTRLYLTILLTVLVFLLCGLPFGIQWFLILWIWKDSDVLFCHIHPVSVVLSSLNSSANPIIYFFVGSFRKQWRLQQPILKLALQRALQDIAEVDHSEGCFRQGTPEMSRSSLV
In words: MRGPRX2 activity: IP-One Gq HTRF assay in CHO cells, antagonism versus 0.3 uM Cortistatin-14. As to conditions: versus 0.3 uM Cortistatin-14 agonist, CHO cells expressing human MRGPRX2, read-out: MRGPRX2 Antagonist Activity. In kind it is cell-based. Summed up:
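CHO cells stably expressing human MRGPRX2 were treated with a 10-point compound curve (30 uM top, 1:3) plus 0.3 μM Cortistatin-14 in LiCl-containing Tris buffer, pH 8. Incubation was 1 h at 37 °C then 1 h at room temperature; IP-1 was detected by HTRF and IC50 came from the HTRF ratio.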

The nature of data set [2]: Solubility Studies in FaSSIF, FeSSIF, FaSSGF (24 hours, room temperature, UPLC-UV). In kind it is physicochemical. The conditions noted are these: kinetic from dmso stock, 24 hours at room temperature. Here is the method: Media according to Biorelevant Media protocols was prepared. 10 μL of 10 mM in DMSO stock solutions of test compounds was added to 96-well deep plate. 490 μL of FaSSIF, FeSSIF, or FaSSGF was then added into appropriate wells of 96-well deep plate. The plate was vortexed for 2 minutes then placed on a plate shaker for 24 hours at room temperature. The plate was centrifuged for 20 minutes, then supernatant was collected and filtered with […] syringe filter into UPLC vials for injection into UPLC-UV system. Concentration was calculated with a 3-point standard curve.

[3] abbreviates: Homo sapiens, LAD2, Mast Cell Beta-Hexosaminidase Release Assay.
Where [4] appears, read: male, C57BL/6, mouse, po, 50 mg/kg.
Setting [5] is: Mast Cell Beta-Hexosaminidase Release Assay.
The mark [6] stands for this setting: fassgf or other biorelevant, solubility in FaSSGF, read-out: FaSSGF.
The mark [7] stands for this setting: solubility in FaSSIF, read-out: FaSSIF.
The mark [8] stands for this setting: solubility in FeSSIF, read-out: FeSSIF.

Values after ≈ are worked out from the molar mass of the structure shown. Like-named read-outs stand apart in the source and are kept apart here. Where only a bound is given, the exact number is not on record here.

In the case of `CC(c1ccccc1F)c1c(F)ccc2c1NC(NCc1ncccc1F)=NS2(=O)=O` (single isomer, unassigned) [Compound 10-1A], the IC50 in the data set with Human LAD2 cells (setting [3]) lay within 100 to 500 nM. For the same compound, in data set [1] (50 mg/kg), the peak level (Cmax) was 4.6 µM and the TBC was 26 mL/min/kg. Further, the half-life – broadly, the time needed for the level to fall by half in the phase considered – in data set [1] (setting [4]) is 2.6 h. For the same compound, at human MRGPRX2, the IC50 was below 100 nM.

Consider `CC(c1ccccc1F)c1c(F)ccc2c1NC(NCc1ncccc1F)=NS2(=O)=O` (single isomer, unassigned) [Compound 10-1B], for which the IC50 with Human LAD2 cells (setting [5]) and at human MRGPRX2 was below 100 nM throughout. The Cmax (in general, the maximum level reached in the sampled fluid or tissue) in data set [1] (50 mg/kg) came out at 14 µM. The same compound yielded a T1/2 in data set [1] (50 mg/kg) of 1.8 h. This compound displayed a TBC in data set [1] (50 mg/kg) of 9 mL/min/kg. For the same compound, the solubility kinetic at 24 h was determined as 61 µM (≈ 27.2 µg/mL) in data set [2] (setting [6]), 133 µM (≈ 59.4 µg/mL) in data set [2] (setting [7]) and 200 µM (≈ 89.3 µg/mL) in data set [2] (setting [8]).

As to `CC(c1ccccc1F)c1c(F)ccc2c1NC(NCc1cccc(F)n1)=NS2(=O)=O` (single isomer, unassigned) [Compound 10-2A], the IC50 with Human LAD2 cells (setting [5]) was 501 to 1000 nM. In addition, in data set [1] (50 mg/kg), the Cmax came to 2.7 µM, the T1/2 worked out at 3.0 h and the TBC came out at 30 mL/min/kg. The IC50 at human MRGPRX2 is below 100 nM.

Regarding `CC(c1ccccc1F)c1c(F)ccc2c1NC(NCc1cccc(F)n1)=NS2(=O)=O` (single isomer, unassigned) [Compound 10-2B], the IC50 in the data set with Human LAD2 cells (setting [5]) and on human MRGPRX2 was below 100 nM throughout. Moreover, the TBC in data set [1] (50 mg/kg) is reported as 27 mL/min/kg. In data set [1] (setting [4]), the Cmax was found to be 4.4 µM. Moreover, the half-life in data set [1] (setting [4]) was 2.3 h. The solubility kinetic at 24 h in data set [2] (setting [6]) was 11 µM (≈ 4.91 µg/mL); in data set [2] (setting [7]) it was 162 µM (≈ 72.3 µg/mL); in data set [2] (setting [8]), 186 µM (≈ 83 µg/mL).

In the case of `Cc1c(F)cccc1CNC1=NS(=O)(=O)c2ccc(F)c(C(C)c3ccccc3F)c2N1` (single isomer, unassigned) [Compound 10-3A], the IC50 in the data set with Human LAD2 cells (setting [3]) is 100 to 500 nM; on human MRGPRX2, below 100 nM. For the same compound, the peak level in data set [1] (50 mg/kg) (Cmax) was 0.37 µM. For the same compound, the TBC in data set [1] (50 mg/kg) was 4.3 mL/min/kg. Besides, in data set [1] (setting [4]), the half-life was 2.5 h.

For the compound `Cc1c(F)cccc1CNC1=NS(=O)(=O)c2ccc(F)c(C(C)c3ccccc3F)c2N1` (single isomer, unassigned) [Compound 10-3B], in the data set on Human LAD2 cells (setting [5]), the IC50 was below 100 nM. In data set [1] (50 mg/kg), this compound yielded a Cmax of 4.2 µM, a T1/2 of 2 h and a TBC of 41 mL/min/kg. In addition, the IC50 at human MRGPRX2 is below 100 nM.

As to `CC(c1ccc(F)cc1)c1c(F)ccc2c1NC(NCc1ncccc1F)=NS2(=O)=O` (single isomer, unassigned) [Compound 10-4A], in the data set with Human LAD2 cells (setting [3]), the IC50 is 100 to 500 nM. The same compound returned a TBC in data set [1] (50 mg/kg) of 11 mL/min/kg. In data set [1] (setting [4]), this compound had a Cmax of 9.6 µM and a half-life of 4.4 h. Besides, the IC50 on human MRGPRX2 was below 100 nM.

For `CC(c1ccc(F)cc1)c1c(F)ccc2c1NC(NCc1ncccc1F)=NS2(=O)=O` (single isomer, unassigned) [Compound 10-4B], the IC50 in the data set on Human LAD2 cells (setting [5]) and on human MRGPRX2 was below 100 nM each time. In addition, the Cmax in data set [1] (50 mg/kg) stood at 10 µM. The compound further gave a T1/2 in data set [1] (50 mg/kg) of 2.2 h. This compound also gave a TBC in data set [1] (50 mg/kg) of 12 mL/min/kg. Further, the solubility kinetic at 24 h worked out at 3 µM (≈ 1.34 µg/mL) in data set [2] (setting [6]), 23 µM (≈ 10.3 µg/mL) in data set [2] (setting [7]) and 37 µM (≈ 16.5 µg/mL) in data set [2] (setting [8]).

With `CC(c1ccccc1F)c1c(F)ccc2c1NC(NCc1cccc(F)c1)=NS2(=O)=O` (single isomer, unassigned) [Compound 10-5A], in the data set with Human LAD2 cells (setting [5]), the IC50 was 1000 to 2500 nM. In data set [1] (50 mg/kg), this compound registered a Cmax of 2.8 µM and a TBC of 50 mL/min/kg. For the same compound, the half-life in data set [1] (setting [4]) was 2.2 h. In addition, the IC50 at human MRGPRX2 was below 100 nM.

With `C[C@H](c1ccccc1F)c1c(F)c(F)cc2c1NC(NCc1ncccc1F)=NS2(=O)=O` [Compound 10-6B, (R)-6,7-difluoro-5-(1-(2-fluorophenyl)ethyl)-3-(((3-fluoropyridin-2-yl)methyl)amino)-4H-benzo[e][1,2,4]thiadiazine 1,1-dioxide], the IC50 with Human LAD2 cells (setting [3]) and at human MRGPRX2 was 100 to 500 nM in each case. This compound registered a TBC in data set [1] of 33 mL/min/kg. The same compound gave a Cmax in data set [1] (setting [4]) of 2.7 µM.
